Measured values published in patent US20120010235A1, “N-SUBSTITUTED PYRROLIDINES” (priority 2010, published 2012).
Structures can show the parent of a compound that is named as a salt.

The molecules below were run on SJSA, an osteocarcinoma cell line (assay: antiproliferative activity assay (tetrazolium dye, MTT) in SJSA cells). Details: cell-based MTT assay, inhibition of cell proliferation, read-out: TT IC50.
Method: The pharmacological properties of the compounds of this invention may be confirmed by a number of pharmacological assays. The exemplified antiproliferative activity assay which follows has been carried out with the compounds according to the invention.
Cell proliferation was evaluated by the tetrazolium dye assay according to the procedure of Denizot and Lang (Denizot, F. and Lang, R. (1986) Rapid colorimetric assay for cell growth and survival. Modification to the terrazolium dye procedure giving improved sensitivity and reliability. J. Immunol. Methods 89, 271-277). The cell line used was SJSA, an osteocarcinoma cell line obtained from the American Type Cell Culture Collection (ATCC; Rockville, Md.). The cells were grown in PRMI with 10% FBS (Fetal Bovine Serum, Invitrogen).
Cells were plated at the appropriate seeding density to give logarithmic growth over the course of the assay in a 96-well tissue culture plate. Plates were incubated overnight at 37° C. in a humidified incubator with 5% CO2. The next day, test compounds were serially diluted 1:3 in the appropriate medium containing 3% DMSO. One-tenth final volume of each dilution was added […] to the plates containing cells. The same volume of 3% DMSO in medium was added to a row of control wells. Thus, the final concentration of DMSO in all wells was 0.3%. The plates were returned to the incubator, and at set time points (determined by their growth curves) plates were analyzed as follows: 3-(4,5-dimethylthiazole-2-yl)-2,5-diphenyl-2H-tetrazolium bromide (thiazolyl blue; MTT; Sigma) was added to each well to yield a final concentration of 1 mg/ml. Plates were returned to the incubator for 2.5 hours. The MTT-containing medium was removed and the resulting formazan metabolite was solubilized in 100% ethanol with shaking for 15 minutes at room temperature. Absorbances were read in a microtiter plate reader at a wavelength of 570 nm with a 650 nm reference. Percent inhibition (% INH) was calculated by subtracting the blank from all wells, then subtracting the ratio of the average absorbance of each triplicate (SAVE) by the average of the controls (CAVE) from 1.00. The final product was then multiplied by 100 (% INH=(1.00−SAVE/CAVE)×100). The concentration at which 50% inhibition (IC50) of cell proliferation is obtained was determined from the linear regression of a plot of the logarithm of the concentration versus percent inhibition.

Structure (SMILES)	IC50 [nM]
CN1[C@@H](CC(C)(C)C)[C@](C#N)(c2ccc(Cl)cc2F)[C@@H](c2cccc(Cl)c2F)[C@@H]1C(=O)Nc1ccc(C(C)(C)C(=O)O)cc1 [Example 27, 2-(4-{[(2R,3S,4R,5S)-3-(3-chloro-2-fluoro-phenyl)-4-(4-chloro-2-fluoro-phenyl)-4-cyano-5-(2,2-dimethyl-propyl)-1-methyl-pyrrolidine-2-carbonyl]amino}-phenyl)-2-methyl-propionic acid]	1950
COc1cc(C(=O)O)ccc1NC(=O)[C@H]1[C@H](c2cccc(Cl)c2F)[C@@](C#N)(c2ccc(Cl)cc2F)[C@H](CC(C)(C)C)N1C [Example 31, 4-{[(2R,3S,4R,5S)-3-(3-chloro-2-fluoro-phenyl)-4-(4-chloro-2-fluoro-phenyl)-4-cyano-5-(2,2-dimethyl-propyl)-1-methyl-pyrrolidine-2-carbonyl]-amino}-3-methoxy-benzoic acid]	190
CC(C)CN1[C@@H](CC(C)(C)C)[C@](C#N)(c2ccc(Cl)cc2F)[C@@H](c2cccc(Cl)c2F)[C@@H]1C(=O)Nc1ccc(C(=O)O)cc1 [Example 32, 4-{[(2R,3S,4R,5S)-3-(3-chloro-2-fluoro-phenyl)-4-(4-chloro-2-fluoro-phenyl)-4-cyano-5-(2,2-dimethyl-propyl)-1-isobutyl-pyrrolidine-2-carbonyl]-amino}-benzoic acid]	660
COc1cc(NC(=O)[C@H]2[C@H](c3cccc(Cl)c3F)[C@@](C#N)(c3ccc(Cl)cc3F)[C@H](CC(C)(C)C)N2CC2CC2)ccc1C(=O)O [Example 38, 4-{[(2R,3S,4R,5S)-3-(3-chloro-2-fluoro-phenyl)-4-(4-chloro-2-fluoro-phenyl)-4-cyano-1-cyclopropylmethyl-5-(2,2-dimethyl-propyl)-pyrrolidine-2-carbonyl]-amino}-2-methoxy-benzoic acid]	90
COC(=O)c1nc(NC(=O)[C@H]2[C@H](c3cccc(Cl)c3F)[C@@](C#N)(c3ccc(Cl)cc3F)[C@H](CC(C)(C)C)N2C)n[nH]1 [Example 54, 5-{[(2R,3S,4R,5S)-3-(3-chloro-2-fluoro-phenyl)-4-(4-chloro-2-fluoro-phenyl)-4-cyano-5-(2,2-dimethyl-propyl)-1-methyl-pyrrolidine-2-carbonyl]-amino}-2H-[1,2,4]triazole-3-carboxylic acid methyl ester]	750
CN1[C@@H](CC(C)(C)C)[C@](C#N)(c2ccc(Cl)cc2F)[C@@H](c2cccc(Cl)c2F)[C@@H]1C(=O)Nc1ncc(C(=O)O)[nH]1 [Example 55, 2-{[(2R,3S,4R,5S)-3-(3-chloro-2-fluoro-phenyl)-4-(4-chloro-2-fluoro-phenyl)-4-cyano-5-(2,2-dimethyl-propyl)-1-methyl-pyrrolidine-2-carbonyl]-amino}-3H-imidazole-4-carboxylic acid trifluoracetate salt]	4000
CN1[C@@H](CC(C)(C)C)[C@](C#N)(c2ccc(Cl)cc2F)[C@@H](c2cccc(Cl)c2F)[C@@H]1C(=O)Nc1ccn(CC(C)(C)O)n1 [Example 58, (2R,3S,4R,5S)-3-(3-chloro-2-fluoro-phenyl)-4-(4-chloro-2-fluoro-phenyl)-4-cyano-5-(2,2-dimethyl-propyl)-1-methyl-pyrrolidine-2-carboxylic acid [1-(2-hydroxy-2-methyl-propyl)-1H-pyrazol-3-yl]-amide]	3590
CCOC(=O)C1CC1CN1[C@@H](CC(C)(C)C)[C@](C#N)(c2ccc(Cl)cc2F)[C@@H](c2cccc(Cl)c2F)[C@@H]1C(=O)Nc1ccc(C(=O)OC)cc1OC (stereo partly drawn) [Example 61, 4-{[(2R,3S,4R,5S)-3-(3-chloro-2-fluoro-phenyl)-4-(4-chloro-2-fluoro-phenyl)-4-cyano-5-(2,2-dimethyl-propyl)-1-(2-ethoxycarbonyl-cyclopropylmethyl)-pyrrolidine-2-carbonyl]-amino}-3-methoxy-benzoic acid methyl ester]	680
C#CCN1[C@@H](CC(C)(C)C)[C@](C#N)(c2ccc(Cl)cc2F)[C@@H](c2cccc(Cl)c2F)[C@@H]1C(=O)Nc1ccc(C(=O)O)cc1OC [Example 62, 4-{[(2R,3S,4R,5S)-3-(3-chloro-2-fluoro-phenyl)-4-(4-chloro-2-fluoro-phenyl)-4-cyano-5-(2,2-dimethyl-propyl)-1-prop-2-ynyl-pyrrolidine-2-carbonyl]-amino}-3-methoxy-benzoic acid]	80
